Measurements reported in publication PMC12389534, “Unlocking Therapeutic Potential of Novel Thieno-Oxazepine Hybrids as Multi-Target Inhibitors of AChE/BChE and Evaluation Against Alzheimer’s Disease: In Vivo, In Vitro, Histopathological, and Docking Studies” (Pharmaceuticals, 2025).

What was measured:
[1] = system: AlCl3-induced AD rat model; assay: Morris water maze (MWM) test in AlCl3-induced AD rats; format: in vivo; conditions: mean ± SE, n = 6
Method: (§1) All procedures were conducted conforming to the applicable National Institutes of Health standards and regulations for the Care and Use of Laboratory Animals. In this experiment, adult male Dawley rats in excellent condition weighing between 300 and 320 g were used. The animals were acquired from the Nile Company for Pharmaceuticals and Chemical Industries (Cairo, Egypt). They were placed in a controlled laboratory setting with unrestricted access to water, a temperature range of 24 to 26 °C, and 12 h a light–dark cycle. Three rats per cage were housed in polycarbonate cages that were individually packed with paper and encased with stainless steel wire.
Spatial learning and memory were inspected using the MWM test. Tap water was poured into a 150 cm diameter by 60 cm high circular water tank until it reached a depth of 30 cm (25 ± 2 °C). To make the water […], non-toxic white dye was applied. The east, west, north, and south quadrants of the pool were essentially separated into four equal sections. At a specific spot in the middle of one quadrant, an escape platform with a diameter of 10 cm was submerged 2 cm below the water’s surface. The platform stood in the exact same quadrant throughout the testing. The rats’ swimming route was recorded by a video camera situated above the pool. From a designated spot in each quadrant, each rat was submerged in the water with its back turned to the pool wall, and it was then left to swim to the platform. The rats received training sessions every day for three days in a row, with four trials conducted in each session. Before the next trial began, the animals were kept a maximum of 60 s to explore the hidden platform. After that, they were permitted to relax on it for 20 s. The rat was positioned gently on the platform and allowed 20 s to rest if it took longer than 60 s to locate it. The time taken to find the platform, or the escape latency, was documented. In order to do a probing test on the fourth day, the platform was detached away, and the rats were given 60 s to swim liberally. The time spent in the assigned quadrant was counted.

[2] = system: AlCl3-induced AD rat model; assay: Y-maze SAP test in AlCl3-induced AD rats; format: in vivo; conditions: mean ± SE, n = 6
Method: as §1
One kind of short-term memory that SAP can represent is spatial working memory. Three arms, designated A, B, or C, were employed in a black hardwood Y-maze with a symmetrical triangular core space. Rats were briefly positioned at the edge of one arm and given 8 min to freely navigate around the maze. When the rat’s rear paws were fully inside the arm, the entries were counted. The following formula was used to determine SAP based on the total number of arm entries and alternations: SAP (%) = [number of alternations/(total arm entries − 2)] × 100 [94].

COc1cc2c(cc1OC)C(=O)C(CC1CCN(Cc3ccccc3)CC1)C2 (stereo not drawn) [Donepezil, reference compound]
Learning (s) ([1]; escape latency): 14.78 ± 0.83 ^ab s | Memory (s) ([1]; time spent in target quadrant): 42.67 ± 0.61 ^ab s | SAP% [2]: 85 ± 0.58 ^ab %
